Results as given in patent publication US7642245B2, “Antibacterial compounds having a (pyrrole carboxamide)-(benzamide)-(imidazole carboxamide) motif” (Oscient Pharmaceuticals Corporation, priority 2002, dated 2010).

Columns and labels:
S. pneumoniae ATCC 49619 = assay: MIC, NCCLS broth microdilution; type: cell-based, Streptococcus pneumoniae; details: E = S. pneumoniae ATCC 49619
Method in brief: (§1)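 Minimal inhibitory concentration determined by NCCLS broth microdilution in microtiter plates per documents M7-A4, M11-A4 and M27-T. S. aureus ATCC 27660 is a methicillin-resistant strain. The antifungal test on C. albicans followed the method recommended in the Manual of Clinical Microbiology (1995).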

E. faecalis ATCC 29212 = assay: MIC, NCCLS broth microdilution; type: cell-based, Enterococcus faecalis; details: C = E. faecalis ATCC 29212
Method in brief: as §1

E. coli ATCC 25922 = assay: MIC, NCCLS broth microdilution; type: cell-based, Escherichia coli; details: G = E. coli ATCC 25922
Method in brief: as §1

C. albicans ATCC 38247 = assay: MIC, antifungal assay; type: cell-based, Candida albicans; details: F = C. albicans ATCC 38247
Method in brief: (§2)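 Broth microdilution, NCCLS M7-A4/M11-A4/M27-T guidelines; read-out MIC. MRSA strain for S. aureus. Candida: Manual of Clinical Microbiology method.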

B. cereus ATCC 11778 = assay: MIC, NCCLS broth microdilution; type: cell-based, Bacillus cereus; details: D = B. cereus ATCC 11778
Method in brief: as §2

[1] = system: M. catarrhalis (ATCC 25238); assay: MIC, NCCLS broth microdilution; type: cell-based, Moraxella (now Branhamella) catarrhalis; details: H = M. catarrhalis (ATCC 25238)
Method in brief: as §2

S. aureus ATCC 27660 = assay: MIC, NCCLS broth microdilution; type: cell-based, Staphylococcus aureus; details: B = S. aureus ATCC 27660 (MRSA)
Method in brief: as §2

S. aureus ATCC 13709 = assay: MIC, NCCLS broth microdilution; type: cell-based, Staphylococcus aureus; details: A = S. aureus ATCC 13709 (MSSA)
Method in brief: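 Compounds were serially diluted in broth and tested against each strain according to NCCLS guidelines, with MIC taken as the endpoint. C. albicans was assayed per the Manual of Clinical Microbiology.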

[2] = system: Enterococcus faecalis ATCC 29212; assay: Disc diffusion of non-formulated compounds; type: cell-based; details: ATCC29212, non-formulated compound, 30 μg/disc, E. faecalis ATCC 29212 on TSA + 5% Sheep Blood, 6.3 mm disc = no inhibition zone, read-out: Zone Diameter (nearest whole mm)
Experimental: (§3) The diffusion assays on a compound of this invention were performed according to NCCLS Guidelines (Performance Standards for Antimicrobial Susceptibility Testing, M100-S12 vol. 22 and Performance Standards for Antimicrobial Disk Susceptibility Tests, M2-A7 vol. 20) with the following modifications: Generally, diffusion of the drug from the inoculation site (the disk or the well, as the case may be) through the agar creates a concentration gradient of the test compound. Bacterial growth is inhibited by the drug, creating a zone of inhibition. […] The activity of the compound was determined by measurement of the zone of inhibition surrounding the disk. The results are provided in Tables C, D, and E. The diffusion results of Table C measure the diffusion of free compound. The diffusion results of Tables D and E measure the diffusion of compound formulated into a cream.

[3] = system: Streptococcus pneumoniae ATCC 49619; assay: Disc diffusion of non-formulated compounds; type: cell-based; details: ATCC49619, non-formulated compound, 30 μg/disc, S. pneumoniae ATCC 49619 on TSA + 5% Sheep Blood, 6.3 mm disc = no inhibition zone, read-out: Zone Diameter (nearest whole mm)
Experimental: as §3

[4] = system: Staphylococcus aureus ATCC 13709; assay: Disc diffusion of non-formulated compounds; type: cell-based; details: ATCC13709, non-formulated compound, 30 μg/disc, S. aureus ATCC 13709 on TSA, 6.3 mm disc = no inhibition zone, read-out: Zone Diameter (nearest whole mm)
Experimental: as §3

Row | Minimum Inhibitory Concentration (MIC) (S. pneumoniae ATCC 49619) | Minimum Inhibitory Concentration (MIC) (E. faecalis ATCC 29212) | Minimum Inhibitory Concentration (MIC) (E. coli ATCC 25922) | Minimum Inhibitory Concentration (MIC) (C. albicans ATCC 38247) | Minimum Inhibitory Concentration (MIC) (B. cereus ATCC 11778) | Minimum Inhibitory Concentration (MIC) [1] | Minimum Inhibitory Concentration (MIC) (S. aureus ATCC 27660) | Minimum Inhibitory Concentration (MIC) (S. aureus ATCC 13709) | Compound | zone of inhibition at 30 µg/disc [2] | zone of inhibition at 30 µg/disc [3] | zone of inhibition at 30 µg/disc [4]
1 | +++ (MIC ≦ 4 μg/mL) | +++ (MIC ≦ 4 μg/mL) | >32 µg/mL | >32 µg/mL | +++ (MIC ≦ 4 μg/mL) | +++ (MIC ≦ 4 μg/mL) | +++ (MIC ≦ 4 μg/mL) | +++ (MIC ≦ 4 μg/mL) | Cn1cc(NC(=O)c2cc3ccccc3cn2)cc1C(=O)Nc1ccc(C(=O)Nc2cn(C)c(C(=O)NCCN3CCCC(O)C3)n2)cc1 (stereo not shown) [Compound A-72] |  |  | 
2 | +++ (MIC ≦ 4 μg/mL) | +++ (MIC ≦ 4 μg/mL) | >32 µg/mL | >32 µg/mL | +++ (MIC ≦ 4 μg/mL) | >32 µg/mL | +++ (MIC ≦ 4 μg/mL) | +++ (MIC ≦ 4 μg/mL) | Cn1cc(NC(=O)c2cc3ccccc3cn2)cc1C(=O)Nc1ccc(C(=O)Nc2cn(C)c(C(=O)NCCN3CCN(CCOC(=O)CNS(=O)(=O)O)CC3)n2)cc1 [Compound A-73] |  |  | 
3 | +++ (MIC ≦ 4 μg/mL) | +++ (MIC ≦ 4 μg/mL) | >32 µg/mL | >32 µg/mL | +++ (MIC ≦ 4 μg/mL) | >32 µg/mL | +++ (MIC ≦ 4 μg/mL) | +++ (MIC ≦ 4 μg/mL) | Cn1cc(NC(=O)c2cc3ccccc3cn2)cc1C(=O)Nc1ccc(C(=O)Nc2cn(C)c(C(=O)NCCN3CCC(OC(=O)CNC(=O)C4OC(O)C(O)C(O)C4O)CC3)n2)cc1 (stereo not shown) [Compound A-74] |  |  | 
4 | +++ (MIC ≦ 4 μg/mL) | +++ (MIC ≦ 4 μg/mL) | >32 µg/mL | >32 µg/mL | +++ (MIC ≦ 4 μg/mL) | >32 µg/mL | +++ (MIC ≦ 4 μg/mL) | +++ (MIC ≦ 4 μg/mL) | Cn1cc(NC(=O)c2cc3ccccc3cn2)cc1C(=O)Nc1ccc(C(=O)Nc2cn(C)c(C(=O)NCCN3CCN(C(=O)C4OC(O)C(O)C(O)C4O)CC3)n2)cc1 (stereo not shown) [Compound A-75] |  |  | 
5 | +++ (MIC ≦ 4 μg/mL) | +++ (MIC ≦ 4 μg/mL) | >32 µg/mL | >32 µg/mL | +++ (MIC ≦ 4 μg/mL) | +++ (MIC ≦ 4 μg/mL) | +++ (MIC ≦ 4 μg/mL) | +++ (MIC ≦ 4 μg/mL) | Cn1cc(NC(=O)c2cc3ccccc3cn2)cc1C(=O)Nc1ccc(C(=O)Nc2cn(C)c(C(=O)NCCN3CCN(CCOC(=O)CNC(=O)C4OC(O)C(O)C(O)C4O)CC3)n2)cc1 (stereo not shown) [Compound A-76] |  |  | 
6 | +++ (MIC ≦ 4 μg/mL) | +++ (MIC ≦ 4 μg/mL) | >32 µg/mL | >32 µg/mL | +++ (MIC ≦ 4 μg/mL) | + (12 ≦ MIC ≦ 32 μg/mL) | ++ (4 < MIC < 12 μg/mL) | +++ (MIC ≦ 4 μg/mL) | CC(S)CN1CCN(CCNC(=O)c2nc(NC(=O)c3ccc(NC(=O)c4cc(NC(=O)c5cc6ccccc6cn5)cn4C)cc3)cn2C)CC1 (stereo not shown) [Compound A-77] |  |  | 
7 | +++ (MIC ≦ 4 μg/mL) | +++ (MIC ≦ 4 μg/mL) | + (12 ≦ MIC ≦ 32 μg/mL) | >32 µg/mL | +++ (MIC ≦ 4 μg/mL) | +++ (MIC ≦ 4 μg/mL) | +++ (MIC ≦ 4 μg/mL) | +++ (MIC ≦ 4 μg/mL) | CCC(O)CN1CCN(CCNC(=O)c2nc(NC(=O)c3ccc(NC(=O)c4cc(NC(=O)c5cc6ccccc6cn5)cn4C)cc3)cn2C)CC1 (stereo not shown) [Compound A-78] |  |  | 
8 | +++ (MIC ≦ 4 μg/mL) | +++ (MIC ≦ 4 μg/mL) | >32 µg/mL | >32 µg/mL | +++ (MIC ≦ 4 μg/mL) | +++ (MIC ≦ 4 μg/mL) | +++ (MIC ≦ 4 μg/mL) | +++ (MIC ≦ 4 μg/mL) | Cn1cc(NC(=O)c2cc3ccccc3cn2)cc1C(=O)Nc1ccc(C(=O)Nc2cn(C)c(C(=O)NCCN3CCCC3CO)n2)cc1 (stereo not shown) [Compound A-81] |  |  | 
9 |  |  |  |  |  |  |  |  | CN[C@H](CC(C)C)C(=O)N[C@H]1C(=O)N[C@@H](CC(N)=O)C(=O)N[C@H]2C(=O)N[C@H]3C(=O)N[C@H](C(=O)N[C@H](C(=O)O)c4cc(O)cc(O)c4-c4cc3ccc4O)[C@H](O)c3ccc(c(Cl)c3)Oc3cc2cc(c3O[C@@H]2O[C@H](CO)[C@@H](O)[C@H](O)[C@H]2O[C@H]2C[C@](C)(N)[C@H](O)[C@H](C)O2)Oc2ccc(cc2Cl)[C@H]1O [Vancomycin] | 15 mm | 19 mm | 15 mm
